Measured values reported in publication PMC10141580, “Cyclic Dichalcogenides Extend the Reach of Bioreductive Prodrugs to Harness Thiol/Disulfide Oxidoreductases: Applications to seco-Duocarmycins Targeting the Thioredoxin System” (ACS Central Science, 2023).
pIC50: −log10 of the molar value. Where two headings read alike, the source gives them in different places.

System: panel of 140 standard cancer cell lines
Assay: ProliFiler-140 cancer cell line screen (CellTiterGlo, 72 h)
Type: cell-based
Conditions: for IC50: read-out: IC50 [M] (ProliFiler-140); for pIC50: read-out: IC50
Method: Incubations were performed for 72 h before automated viability readout with CellTiterGlo (Figure 8).
End of Figure S11 (part 5 of 5): ProliFiler-140 cancer cell line screening for cytotoxicity of the prodrugs.
8-data-point dose response curves from CellTiter-Glo® viability readout.
ProliFiler-140 cell line panel part V

Work on `COc1cccc2c1C(=O)c1c(O)c3c(c(O)c1C2=O)C[C@@](O)(C(=O)CO)C[C@@H]3O[C@H]1C[C@H](N)[C@H](O)[C@H](C)O1` [doxorubicin, reference compound] yielded an IC50 (A172 (Brain), listed as Dox) of 9.4e-08 M, an IC50 (A375 (Skin), listed as Dox) of 4.8e-08 M and an IC50 (A427 (Lung), listed as Dox) of 6.56e-08 M. The IC50 (A431 (Skin), listed as Dox) was 1.7e-07 M, the IC50 (A549 (Lung), listed as Dox) was 3.11e-07 M and the IC50 (A2058 (Skin), listed as Dox) was 3.73e-08 M. It also gave an IC50 (AsPC-1 (Pancreas), listed as Dox) of 1.16e-06 M, an IC50 (BT-20 (Breast), listed as Dox) of 2.35e-07 M and an IC50 (BxPC-3 (Pancreas), listed as Dox) of 2.8e-07 M. For the same compound, the IC50 (COR-L279 (Lung), listed as Dox) was 7.88e-08 M, the IC50 (COV434 (Ovary), listed as Dox) was 6.97e-08 M and the IC50 (COV434, COV434 (Ovary)) was 7e-08 M. The IC50 (Caki-1 (Kidney), listed as Dox) was 3.4e-07 M, the IC50 (Caki-2 (Kidney), listed as Dox) was 1e-06 M and the IC50 (Calu-6 (Lung), listed as Dox) was 7.7e-07 M. For the same compound, the IC50 (DU-145 (Prostate), listed as Dox) was 1.52e-07 M, the IC50 (DV90 (Lung), listed as Dox) was 1.95e-08 M and the IC50 (EFM-19 (Breast), listed as Dox) was 4.73e-07 M. The IC50 (EFM-192A (Breast), listed as Dox) was 7.35e-07 M, the IC50 (EFM-192A, EFM-192A (Breast)) was 7.3e-07 M and the IC50 (EFO-27 (Ovary), listed as Dox) was 2.93e-07 M. The IC50 (H4 (Brain), listed as Dox) was 8.2e-08 M, the IC50 (H4 (Brain)) was 8.18e-08 M and the IC50 (H1299 (Lung), listed as Dox) was 2.2e-07 M. The IC50 (H2228 (Lung), listed as Dox) was 5.7e-08 M, the IC50 (HCC202 (Breast), listed as Dox) was 7.65e-07 M and the IC50 (HCC202, HCC202 (Breast)) was 7.6e-07 M. The IC50 (HCC827 (Lung), listed as Dox) was 3.48e-07 M, the IC50 (HCC 1569 (Breast), listed as Dox) was 7.01e-07 M and the IC50 (HCT-15 (Colon), listed as Dox) was 6.4e-07 M. For the same compound, the IC50 (HEC-1-A (Endometrium), listed as Dox) was 3.27e-07 M, the IC50 (HEC-1-B (Endometrium), listed as Dox) was 2.37e-06 M and the IC50 (HL-60 (Blood), listed as Dox) was 2.65e-08 M. The IC50 (HT-29 (Colon), listed as Dox) was 3.69e-07 M, the IC50 (HeLa (Cervix), listed as Dox) was 8e-08 M and the IC50 (Hep3B2.1-7 (Liver), listed as Dox) was 5.32e-07 M. For the same compound, the IC50 (Hep3B2.1-7 (Liver)) was 5.3e-07 M, the IC50 (Homo sapiens, 786-0, 786-O (Kidney)) was 1.15e-07 M and the pIC50 (Homo sapiens, 786-0, 786-O) was 6.96. It also gave an IC50 (Homo sapiens, A 172, A172 (Brain)) of 9.38e-08 M, an IC50 (Homo sapiens, A498, A498 (Kidney)) of 3.22e-07 M and a pIC50 (Homo sapiens, A498, A498) of 6.49. For the same compound, the pIC50 (Homo sapiens, A549, A549) was 6.51, the IC50 (Homo sapiens, A2058, A2058 (Skin)) was 3.7e-08 M and the IC50 (Homo sapiens, A2780, A2780 (Ovary)) was 1.8e-08 M. The IC50 (Homo sapiens, A-375, A375 (Skin)) was 4.76e-08 M, the IC50 (Homo sapiens, A-427, A427 (Lung)) was 6.6e-08 M and the IC50 (Homo sapiens, A-431, A431 (Skin)) was 1.74e-07 M. The IC50 (Homo sapiens, ASPC1, AsPC-1 (Pancreas)) was 1.2e-06 M, the IC50 (Homo sapiens, BT-20, BT-20 (Breast)) was 2.3e-07 M and the IC50 (Homo sapiens, BXPC-3, BxPC-3 (Pancreas)) was 2.78e-07 M. It also gave an IC50 (Homo sapiens, CAKI-1, Caki-1 (Kidney)) of 3.39e-07 M, an IC50 (Homo sapiens, CAKI-2, Caki-2 (Kidney)) of 1.03e-06 M and an IC50 (Homo sapiens, COR-L279, COR-L279 (Lung)) of 7.9e-08 M. For the same compound, the IC50 (Homo sapiens, Calu-6, Calu-6 (Lung)) was 7.69e-07 M, the IC50 (Homo sapiens, DLD-1, DLD-1 (Colon)) was 1.37e-07 M and the IC50 (Homo sapiens, DU-145, DU-145 (Prostate)) was 1.5e-07 M. The pIC50 (Homo sapiens, DU-145, DU-145) was 6.82.
